Test results as given in patent US20110124626A1, “BENZAZEPINE DERIVATIVES AND THEIR USE AS HISTAMINE H3 ANTAGONISTS” (TAKEDA PHARMACEUTICAL COMPANY LIMITED, priority 2008, published 2011).

Key:
[1] = molecular target: T1, human H3 receptor (Homo sapiens, UniProt Q9Y5N1); test: In vitro H3 binding assay (3H-N-α-methyl-histamine competition binding); conditions: membranes of CHO-K1 cells expressing human H3 receptor; 2 nM 3H-NαMH; read-out: hH3 binding IC50
T1 construct: expressed in transfected cells
T1 sequence (Q9Y5N1 whole entry): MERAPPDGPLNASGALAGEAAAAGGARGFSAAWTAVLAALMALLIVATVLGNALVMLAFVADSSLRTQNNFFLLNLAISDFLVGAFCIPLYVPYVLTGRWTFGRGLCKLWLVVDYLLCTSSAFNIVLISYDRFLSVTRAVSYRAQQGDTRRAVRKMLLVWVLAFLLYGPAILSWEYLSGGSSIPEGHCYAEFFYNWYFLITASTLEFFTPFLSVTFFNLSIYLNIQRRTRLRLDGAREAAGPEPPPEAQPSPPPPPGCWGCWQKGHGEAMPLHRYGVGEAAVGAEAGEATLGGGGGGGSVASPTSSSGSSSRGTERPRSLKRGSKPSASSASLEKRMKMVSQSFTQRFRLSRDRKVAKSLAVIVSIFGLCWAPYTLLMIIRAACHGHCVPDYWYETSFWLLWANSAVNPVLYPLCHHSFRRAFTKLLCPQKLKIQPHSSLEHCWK
Outline: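 Membranes from CHO-K1 cells stably expressing human H3 (5 μg/well) incubated 1 h at room temperature with compound and 2 nM ³H-NαMH in 50 mM Tris-HCl pH 7.4, 5 mM MgCl2; non-specific binding defined with 1 μM RαMH. Bound radioactivity measured by filtration and scintillation; IC50 from seven-point curves by variable-slope sigmoidal regression.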

[2] = molecular target: T1, human H3 receptor; test: In vitro H3 functional assay (cAMP response element driven luciferase reporter); assay type: cell-based; conditions: CHO(dhfr+)-cre-luc cells expressing human H3 receptor; RαMH 10 nM, forskolin 1 μM; read-out: hH3 functional IC50
Procedure: The functional activity of compounds at the H3 receptor was determined by measuring changes in the level of intracellular cAMP using a cAMP response element driven luciferase reporter assay. The changes in luciferase expression were monitored by a luminescence plate reader, Analyst HT (MDS Analytical). Increases in intracellular cAMP were readily detected upon activation of protein kinase A by forskolin (Sigma) and suppression of this response observed with the application of the H3 receptor agonist RαMH (Sigma).
CHO(dhfr^+)-cre-luc cells stably expressing human H3 receptor were routinely grown as monolayers in Minimal Essential Medium α (MEMα) (Invitrogen) supplemented with 10% dialysed FBS (Hyclone), in 5% CO2 at 37° C. 48 hours prior to assay, cells were seeded in clear-base white walled 384-well plates (Corning) at a density of 5000 cells/well. On the day of assay, growth media was removed and replaced with […] of assay buffer (MEMα, 5 mg/ml fatty acid free BSA (Sigma)) per well. Cells were then incubated for 30 minutes at 37° C., 5% CO2. Compound was serially diluted in DMSO before being diluted 1:10 with assay buffer. 2.5 of compound diluted in assay buffer was added and cells incubated for 5 minutes at 37° C., 5% CO2. 2.5 μl of each reagent was then added in the following order: RαMH (10 nM), isobutylmethylxanthine (1-methyl-3-(2-methylpropyl)-7H-purine-2,6-dione; IBMX) (500 μM) (Sigma) and forskolin (1 μM). Cells were then incubated for 90 minutes at 37° C., 5% CO2, followed by 30 minutes at room temperature. At the end of incubation 25 μl of Steadylite reagent (Perkin Elmer) was added, plates were sealed and placed on a shaker for 5 minutes. The level of light output to determine the level of luciferase expression was then measured.
IC50 values for compounds were determined from ten point half log scale dose-response studies and represent the concentration of compound required to […] 50% inhibition of forskolin stimulated cells in the presence of RαMH alone. Curves were generated using the average of duplicate wells for each data point and analyzed using nonlinear regression of four parameter dose response.

| IC50 [1] [nM] | IC50 [2] [nM] | Structure (SMILES) |
| --- | --- | --- |
| 3 | 1 | Cn1ccc2c(CNC(=O)c3ccc4c(c3)CCN(C3CCC3)CC4)cccc21 [Example 77, 3-Cyclobutyl-N-((1-methyl-1H-indol-4-yl)methyl)-2,3,4,5-tetrahydro-1H-benzo[d]azepine-7-carboxamide] |
| 4 | 2 | O=C(NCc1nc2ccccc2s1)c1ccc2c(c1)CCN(C1CCC1)CC2 [Example 78, N-(Benzo[d]thiazol-2-ylmethyl)-3-cyclobutyl-2,3,4,5-tetrahydro-1H-benzo[d]azepine-7-carboxamide] |
| 6 | 3 | Cn1c(CNC(=O)c2ccc3c(c2)CCN(C2CCC2)CC3)nc2ccccc21 [Example 79, 3-Cyclobutyl-N-((1-methyl-1H-benzo[d]imidazol-2-yl)methyl)-2,3,4,5-tetrahydro-1H-benzo[d]azepine-7-carboxamide] |
| 0.4 | 0.8 | O=C(NCc1ccc2nccn2c1)c1ccc2c(c1)CCN(C1CCC1)CC2 [Example 81, 3-Cyclobutyl-N-(imidazo[1,2-a]pyridin-6-ylmethyl)-2,3,4,5-tetrahydro-1H-benzo[d]azepine-7-carboxamide] |
| 3 | 1 | O=C(NCc1nccs1)c1ccc2c(c1)CCN(C1CCC1)CC2 [Example 86, 3-Cyclobutyl-N-(thiazol-2-ylmethyl)-2,3,4,5-tetrahydro-1H-benzo[d]azepine-7-carboxamide] |
| 5 | 2 | O=C(NCc1ccsc1)c1ccc2c(c1)CCN(C1CCC1)CC2 [Example 88, 3-Cyclobutyl-N-(thiophen-3-ylmethyl)-2,3,4,5-tetrahydro-1H-benzo[d]azepine-7-carboxamide] |
| 4 | 1 | O=C(NCc1ccc(C(F)(F)F)o1)c1ccc2c(c1)CCN(C1CCC1)CC2 [Example 92, 3-cyclobutyl-N-((5-(trifluoromethyl)furan-2-yl)methyl)-2,3,4,5-tetrahydro-1H-benzo[d]azepine-7-carboxamide] |
| 9 | 2 | Cc1c(CNC(=O)c2ccc3c(c2)CCN(C2CCC2)CC3)cnn1C [Example 97, 3-Cyclobutyl-N-((1,5-dimethyl-1H-pyrazol-4-yl)methyl)-2,3,4,5-tetrahydro-1H-benzo[d]azepine-7-carboxamide] |
| 2 | 0.5 | CCn1nccc1CNC(=O)c1ccc2c(c1)CCN(C1CCC1)CC2 [Example 100, 3-cyclobutyl-N-((1-ethyl-1H-pyrazol-5-yl)methyl)-2,3,4,5-tetrahydro-1H-benzo[d]azepine-7-carboxamide] |
| 11 | 1 | Cn1ccc(CNC(=O)c2ccc3c(c2)CCN(C2CCC2)CC3)n1 [Example 103, 3-Cyclobutyl-N-((1-methyl-1H-pyrazol-3-yl)methyl)-2,3,4,5-tetrahydro-1H-benzo[d]azepine-7-carboxamide] |
| 1 | 4 | Cn1nc(CNC(=O)c2ccc3c(c2)CCN(C2CCC2)CC3)cc1-c1ccccc1 [Example 108, 3-Cyclobutyl-N-((1-methyl-5-phenyl-1H-pyrazol-3-yl)methyl)-2,3,4,5-tetrahydro-1H-benzo[d]azepine-7-carboxamide] |
| 7 | 7 | Cn1cccc1CNC(=O)c1ccc2c(c1)CCN(C1CCC1)CC2 [Example 111, 3-Cyclobutyl-N-((1-methyl-1H-pyrrol-2-yl)methyl)-2,3,4,5-tetrahydro-1H-benzo[d]azepine-7-carboxamide] |
| 12 | 19 | Cn1cncc1CNC(=O)c1ccc2c(c1)CCN(C1CCC1)CC2 [Example 114, 3-Cyclobutyl-N-((1-methyl-1H-imidazol-5-yl)methyl)-2,3,4,5-tetrahydro-1H-benzo[d]azepine-7-carboxamide] |
| 13 | 1 | Cn1ccc(CCC(=O)c2ccc3c(c2)CCN(C2CCC2)CC3)n1 [Example 134, 1-(3-cyclobutyl-2,3,4,5-tetrahydro-1H-benzo[d]azepin-7-yl)-3-(1-methyl-1H-pyrazol-3-yl)propan-1-one] |
| 24 | 7 | OC(Cc1ccc2c(c1)CCN(C1CCC1)CC2)c1ccccn1 (stereo not shown) [Example 143, 2-(3-cyclobutyl-2,3,4,5-tetrahydro-1H-benzo[d]azepin-7-yl)-1-(pyridin-2-yl)ethanol] |
| 10 | 5 | CC(=O)N1CCCC(CNC(=O)c2ccc3c(c2)CCN(C2CCC2)CC3)C1 (stereo not shown) [Example 164, N-((1-acetylpiperidin-3-yl)methyl)-3-cyclobutyl-2,3,4,5-tetrahydro-1H-benzo[d]azepine-7-carboxamide] |
| 22 | 71 | NC(=O)c1ccc2c(c1)CCN(C1CCC1)CC2 [Example 167, 3-cyclobutyl-2,3,4,5-tetrahydro-1H-benzo[d]azepine-7-carboxamide] |
| 14 | 4 | O=C(NCC1CCS(=O)(=O)C1)c1ccc2c(c1)CCN(C1CCC1)CC2 (stereo not shown) [Example 171, 3-Cyclobutyl-2,3,4,5-tetrahydro-1H-benzo[d]azepine-7-carboxylic acid (1,1-dioxo-tetrahydro-1lambda*6*-thiophen-3-ylmethyl)-amide] |
| 21 | 4 | O=C(NCc1ccc2c(c1)CCN(C1CCC1)CC2)c1cnccn1 [Example 181, N-((3-cyclobutyl-2,3,4,5-tetrahydro-1H-benzo[d]azepin-7-yl)methyl)pyrazine-2-carboxamide] |
| 13 | 2 | O=C(NCc1ccc2c(c1)CCN(C1CCC1)CC2)c1cncc(F)c1 [Example 191, N-((3-cyclobutyl-2,3,4,5-tetrahydro-1H-benzo[d]azepin-7-yl)methyl)-5-fluoronicotinamide] |
| 26 | 7 | O=C(NCc1ccc2c(c1)CCN(C1CCC1)CC2)N1CCCC1 [Example 194, N-((3-cyclobutyl-2,3,4,5-tetrahydro-1H-benzo[d]azepin-7-yl)methyl)pyrrolidine-1-carboxamide] |
| 6 | 9 | Cc1ncc(C(=O)NCc2ccc3c(c2)CCN(C2CCC2)CC3)cn1 [Example 211, N-((3-cyclobutyl-2,3,4,5-tetrahydro-1H-benzo[d]azepin-7-yl)methyl)-2-methylpyrimidine-5-carboxamide] |
| 41 | 20 | CC(C)(O)CC(=O)NCc1ccc2c(c1)CCN(C1CCC1)CC2 [Example 216, N-((3-cyclobutyl-2,3,4,5-tetrahydro-1H-benzo[d]azepin-7-yl)methyl)-3-hydroxy-3-methylbutanamide] |
| 11 | 3 | Cn1nccc1NC(=O)Cc1ccc2c(c1)CCN(C1CCC1)CC2 [Example 221, 2-(3-cyclobutyl-2,3,4,5-tetrahydro-1H-benzo[d]azepin-7-yl)-N-(1-methyl-1H-pyrazol-5-yl)acetamide] |
| 2 | 4 | O=C(Cc1ccc2c(c1)CCN(C1CCC1)CC2)Nc1cccnc1 [Example 224, 2-(3-cyclobutyl-2,3,4,5-tetrahydro-1H-benzo[d]azepin-7-yl)-N-(pyridin-3-yl)acetamide] |
| 23 | 15 | CCNC(=O)C1CCC(O)(Cc2ccc3c(c2)CCN(C2CCC2)CC3)CC1 (stereo not shown) [Example 231, 4-((3-cyclobutyl-2,3,4,5-tetrahydro-1H-benzo[d]azepin-7-yl)methyl)-N-ethyl-4-hydroxycyclohexanecarboxamide] |
| 16 | 1 | CC(C)(O)c1ccc(C(=O)NCc2ccc3c(c2)CCN(C2CCC2)CC3)cn1 [Example 239, N-((3-cyclobutyl-2,3,4,5-tetrahydro-1H-benzo[d]azepin-7-yl)methyl)-6-(2-hydroxypropan-2-yl)nicotinamide] |
| 0.6 | 3 | O=C(NCc1ccc2c(c1)CCN(C1CC(F)C1)CC2)c1ccc(N2CCCC2)nc1 (stereo not shown) [Example 242, N-((3-(3-fluorocyclobutyl)-2,3,4,5-tetrahydro-1H-benzo[d]azepin-7-yl)methyl)-6-(pyrrolidin-1-yl)nicotinamide] |
| 10 | 6 | COc1ccc(CC(=O)Cc2ccc3c(c2)CCN(C2CCC2)CC3)cn1 [Example 244, 1-(3-cyclobutyl-2,3,4,5-tetrahydro-1H-benzo[d]azepin-7-yl)-3-(6-methoxypyridin-3-yl)propan-2-one] |
